# In US6518315B1, “Medicinal uses of phenylaikanols and derivatives” (The University of Sydney, priority 1997, dated 2003):
# Where two headings read alike, the source gives them in different places.
# What was measured:
# rat mesenteric artery = assay: Vasodilation on rat mesenteric artery
# Text: The proposed mechanism of neuropeptide release by 1-(4-hydroxy-3-methoxyphenyl)dodecan-3-ol, similar to that of capsaicin, was supported by studies in blood vessels. […] This contrasts with capsaicin which has similar activity in Guinea pig atria (force and rate) and relaxing rat mesenteric artery.
# guinea pig atria = assay: Organ bath assay, isolated guinea pig atria (rate and force of contraction)
# Protocol: Male guinea pigs, 3-4 weeks old, were killed by rapid cervical dislocation without induced anaesthesia. Then, the guinea pigs were dissected to isolate the atria which were immediately mounted vertically in an organ bath containing Krebs-Henseleit solution oxygenated with carbogen.
# One gram tension was applied to the atria and the base line continuously adjusted until it was stable for 20 mins. The rate and force of contraction were recorded using Mac Lab equipment.
# Test substances in DMSO were assayed to a maximum concentration of 50 μM at a final concentration of 2.5% of DMSO.
# right atrium guinea pig = assay: Cardiovascular and neuro-effector junction activities: right atrium, guinea pig; conditions: 10^−7-3 × 10^−5 M; not blocked by praz., prop.
# Text: (§1) Therefore, further investigation of the physicochemical properties as well as mechanism(s) of action of these substances, including gingerols, is required in relation to cardiotonicity. The mode of action of gingerols as cardiotonic agents has been […] and it was proposed that they act by direct stimulation of the cardiac SR Ca^2+-ATPase. This may load extra calcium into the intracellular stores in the sarcoplasmic reticulum allowing more calcium to be released on stimulation of the heart resulting in increased cardiac contractility. […] The cardiotonic action of 1-(4-hydroxy-3-methoxyphenyl)dodecan-3-ol [3.93] was confirmed from independent studies, carried out at our request as part of our agreement with Johnson & Johnson Research Ltd (J&J), by Prof. James Angus from the University of Melbourne. […] A tachycardial effect of the substance on guinea pig atria was, however, observed at significant rate, 50-60% of isoprenaline Emax and the response was not α- or β-adrenoceptor mediated.
# (§2) Cardiovascular and Neuro-effector Junction Activities of Gingerol Analogues
# right atrium rat = assay: Cardiovascular and neuro-effector junction activities: right atrium, rat; conditions: 3 × 10^−7-3 × 10^−6 M, with propranolol present
# Text: as §1, §2
# [1] = test system: rabbit platelet-rich plasma; assay: Antiplatelet aggregation screen with arachidonic acid as substrate; format: cell-based
# left atrium guinea pig = assay: Cardiovascular and neuro-effector junction activities: left atrium, guinea pig
# Protocol: In later studies positive inotropic activity was observed as a 50% increase on driven guinea pig left atria at 10 μM.
# No effect was observed on nerve stimulation in atria.
# as §1, §2
# [2] = test system: capsaicin-sensitive DRG neuronal cells; assay: [Ca^2+]i transients in DRG neuronal cells in culture; format: cell-based, rat
# Text: Effect of Gingerol Analogues Towards Rat Dorsal Root Ganglia
# Capsaicin, the pungent component in peppers of the Capsicum genus, family Solanaceae, has the ability to excite a subset of sensory neurons, which include polymodal nociceptors and warm thermoceptors (Fitzgerald, 1983) by opening non-selective cation channels that are permeable to Na^+, K^+, and Ca^2+ (Bevan and Szolcsanyi, 1990). It has been shown that capsaicin evoked a concentration-dependent rise in [Ca^2+]i in cultured dorsal root ganglion neurons. The duration of the elevation of [Ca^2+]i depended on the concentration of capsaicin (Choleswinski, et al., 1993). In this investigation peak [Ca^2+]i transient measurements are used as a model for testing gingerol analogues.
# DRG from neonatal (3-5 days old) rat or adult Sprague-Dawley rats were incubated in Hanks CMF saline with 0.05% collagenase and 0.25% trypsin for 25 min at 37° C. Individual cells were obtained by trituration with fire polished Pasteur pipettes of diminishing diameters. Neurones were isolated from the cell suspension in 30% Percoll and then plated on collagen coated coverslips or in 24-well plates, then cultured in neurobasal medium with B27 supplement, 50 ng/ml 2.5 S nerve growth factor, 2 mM 1-glutamine and 100 U/ml penicillin/streptomycin. Cultures were maintained at 37° C. with 5% CO2. 30% Percoll increases the percentage of capsaicin-sensitive DRG neurones up to 70%. For peak [Ca^2+]i transients measurements, cells on coverslips were incubated with 5 μM Fura-2 AM for 30 min at 37° C. The coverslips were then mounted on a chamber attached to a fast sample application perfusion system which allows changing solutions in the second range. Recordings were made on the stage of a Nikon Diaphot inverted microscope fitted with a Nikon 40×Fluo (NA 0.85) DL Ph3 or 40×Fluo (NA 1.3) oil objective. [Ca^2+]i was calculated from dual excitation wavelength (340/380 nm) fluorescence measurements following an intracellular calibration procedure by the Grynkiewicz equation, using MCID M2/M4 v.3.0 (Imaging Res. Inc.) software. Cells were continuously perfused with a solution consisting of 140 mM NaCl, 2 mM CaCl2, 5 mM KCl, 20 mM HEPES, 10 mM glucose, pH 7.4. To study KCl evoked depolarisation, 50 mM NaCl was replaced by equimolar KCl. Cytoplasmic localisation of Fura-2 was tested with the Mn^2+ quenching technique (Dedov and Roufogalis, 1998). All experiments were performed at room temperature (20-23° C.).
# Typical changes in [Ca^2+]i upon depolarisation were evoked by 50 mM KCl and by application of 1 μM capsaicin; both were applied for 30 sec. Capsaicin-evoked peak [Ca^2+]i transients are characterised by a fast rise and long-steady state [Ca^2+]i clearance from the cytoplasm. In capsaicin-sensitive cells the half-time of cytoplasmic Ca^2+ clearance was proportional to the amplitudes of peak [Ca^2+]i transients.
# To examine the effect of gingerol derivatives, one or several compounds in succession at a concentration of 10 μM were applied for 1 min to the DRG neuronal cells followed by washing out for 4 min with physiological solution. To the capsaicin-sensitive cells, 10 μM capsaicin and 50 mM KCl were applied, respectively, to confirm the viability of the cells. In addition, morphological appearances of the cells were also examined at the end of experiment. […]
# [3] = test system: brine shrimp (Artemia salina Leach); assay: Brine shrimp assay; format: in vivo; conditions: for LC50: 24 hours, 2% DMSO
# Text: Toxicity—Brine Shrimp Assay
# The brine shrimp assay procedure determines LC50 values of active compounds. Activities of a broad range of known active compounds are manifested as toxicity to brine shrimp (Artemia salina Leach). There are many applications of the assay including analysis of toxic substances, anaesthetics, morphine-like substances and cocarcinogenicity of phorbol esters.
# DMSO (dimethyl sulfoxide) was the solvent of choice because of its good solubilising properties and also because the substances used in the ATPase inhibition assays were already prepared with DMSO.
# The method for testing solvent toxicity used was basically that reported by J L McLaughlin in Methods of Plant Biochemistry (1991), vol. 6 (K Hostettman, ed.), Academic Press, London, 1-32. DMSO solutions of the substances to be tested were added directly to the vials containing the brine shrimp. As the concentration of DMSO is that we wished to use was higher than the recommended 1% v/v testing of the toxicity of the DMSO was therefore necessary. The concentrations of DMSO tested on the shrimp, along with the results from the assay which was done in duplicate are listed below.
# Brine shrimp toxicity was assayed, except for some minor modifications, according to the method of McLaughlin et al as reported in Brine Shrimp: A convenient bioassay for active plant constituents, B N Meyer, N R Ferrigni, J E Putnam, L B Jacobsen, D E Nichols and J L McLaughlin in Planta Medica (1982), 45, 31-34 and Crown gall tumours on potato discs and brine shrimp lethality: Two simple bioassays for higher plant screening and fractionation. J L McLaughlin. Methods of Plant Biochemistry (1991), vol. 6 (K Hostettman, ed.), Academic Press, London, 1-32. Ten shrimp were transferred to each of the vials and the volume adjusted to 4.9 mL. Each dose was performed in triplicate, including the control. In quick succession, the appropriate volume of additional DMSO for each dose, required to achieve a final concentration of 2%, was added before the appropriate volume of test solution. The vials were gently mixed and the time noted. After 24 hours, the number of survivors were counted and % mortality was determined. The test compounds were assayed at concentrations of 100 μM, 25 μM, 5 μM, 1 μM and 0.2 μM (and where appropriate concentrations of 0.04 μM and 0.008 μM).
# The brine shrimp were able to survive without food in the vials over the 24 hour period and were therefore not fed.
# The dose-response curves were constructed using the Sigmaplot computer program and the LC50 value was calculated from the intersection point of the curve and the 50% mortality line. The LC50 values were expressed in both μM and μg/mL.
# For substances with low toxicity, the greater sign “>” indicated the highest concentration at which the assay was carried out as precipitation of the substances occurred above that concentration.
# vas deferens rat = assay: Cardiovascular and neuro-effector junction activities: vas deferens, rat; conditions: 10^−4 M
# Text: as §1, §2
# cardiac Purkinje fibres = assay: Cardiac electrophysiology on Purkinje fibres; set-up: species or system dog; conditions: up to 10 μM
# Protocol: Cardiac Electrophysiological Activities of Gingerol and its Analogue
# The basic cardiac electrophysiological properties were assessed using cardiac Purkinje fibres obtained from adult mongrel dogs.
# Electrophysiology was carried out on dog heart purkinje fibre to test for potential arrhythmia. […] At high concentration (50 μM), however, [8]-gingerol reduced approximate 80% and 50% of action potential duration at 50% and 90% repolarisations respectively. Whereas the analogue reduced 75% and 30% respectively.
# diaphragm rat = assay: Cardiovascular and neuro-effector junction activities: diaphragm, rat; conditions: 10^−5 M
# Text: as §1, §2
# left atrium rat = assay: Cardiovascular and neuro-effector junction activities: left atrium, rat; conditions: 10^−7-3 × 10^−5 M
# Text: as §1, §2
# [4] = test system: brine shrimp (Artemia salina Leach); conditions: in vivo; cited from earlier work
compound,measurement,setting,value
CCCCCCCCCC(O)CCc1ccc(O)c(OC)c1 (stereo not shown) [1-(4-hydroxy-3-methoxyphenyl)dodecan-3-ol],potency (EC50) for relaxation of mesenteric artery relative to inotropic effect in guinea pig atrium,rat mesenteric artery,100 fold
same,relaxing vasopressin-contracted rat mesenteric small arteries,"rat mesenteric artery; 10^−8 to 10^−6 M, 200-300 μm diameter",very potent
same,potency of one enantiomer relative to the other in increasing force of contraction in guinea pig atria,guinea pig atria,100 fold
same,"FORCE OF CONTRACT^n, ↑ increase",guinea pig atria; @ 10 (μM),↑108% @ 10
same,"effect on rate, right atrium guinea pig",right atrium guinea pig,tachycardia
same,"effect on rate, right atrium rat",right atrium rat,tachycardia
same,platelet function via adenosine diphosphate or thromboxane A mechanisms,[1],did not affect
same,antiplatelet aggregation potency relative to indomethacin,"[1]; arachidonic acid as substrate, listed as 3-hydroxy-1-(4-hydroxy-3-methoxyphenyl)dodecane",three time more potent than the indomethacin reference compound
same,arrhythmia on guinea pig driven left atria,left atrium guinea pig; 1 μM,followed by arrhythmia
same,"inotropic effect, % isopren. max., left atrium guinea pig",left atrium guinea pig; 10^−6-3 × 10^−5 M,˜20%
same,"inotropism, left atrium guinea pig",left atrium guinea pig; 10^−6-3 × 10^−5 M (not in rat),inotropic
same,evoked [Ca^2+]i transients in Ca^2+-free medium or with ruthenium red,[2]; Ca^2+-free medium or ruthenium red (1 μM),abolished or greatly diminished
same,"toxicity towards brine shrimp, in words",[3]; in vivo,low toxicity
CCCCCCCC(O)CC(=O)c1ccc(O)c(OC)c1 (stereo not shown) [3-hydroxy-1-(4-hydroxy-3-methoxyphenyl)decan-1-one],"FORCE OF CONTRACT^n (inotropic activity), result in words",guinea pig atria; assayed to a maximum of 50 μM,negative inotropic activity
same,"HEART RATE (chronotropic activity), result in words",guinea pig atria; assayed to a maximum of 50 μM,negative chronotropic activity
same,effect on vas deferens rat,vas deferens rat,no effect
same,"effect on rate of depolarization, amplitude and duration of action potential (50% and 90%)",cardiac Purkinje fibres; listed as 3-hydroxy-1-(4-hydroxy-3-methoxyphenyl)decanone,only a small effect
same,"effect on rate of depolarization, amplitude and duration of action potential (50% and 90%)",cardiac Purkinje fibres; listed as 3.92,insignificant effect
same,"effect on isoprenaline response, left atrium guinea pig",left atrium guinea pig; up to 30 μM,no effect
same,effect on diaphragm rat,diaphragm rat,no effect
same,effect on left atrium rat,left atrium rat,no change
same,Peak [Ca^2+]i (Average ± SD),"[2]; 10 μM applied for 1 min, 2 mM Ca^2+",0 nM
"COc1cc([C@@H]2c3cc4c(cc3[C@H](O)[C@H]3COC(=O)[C@H]23)OCO4)cc(OC)c1OC [podophyllotoxin, reference compound]",LC50 determined by Meyer et al. (1982),[4],(2.4) μg/ml
same,LC50,[3],1.6 µg/mL
same,LC50,[3]; read-out: LC50,3.8 µM
